# Test results as given in patent publication US10188650B2, “Treatment of neurological disorders” (THE REGENTS OF THE UNIVERSITY OF MICHIGAN, priority 2014, dated 2019).
# “Also recorded” adds a separate entry of the source.
# Tests used:
# Drosophila Abl = target: T1, Drosophila Abl (Drosophila melanogaster, UniProt P00522); test: Abl activity in Schneider 2 cells expressing Drosophila Abl, western blot with anti-phospho-Y412-Abl antibody; assay type: cell-based; details: nilotinib 5 μM, 6 hours, S2 cells expressing Drosophila Abl
# T1 construct: the full-length cDNA of Drosophila Abl was obtained by ligating two fragments; Myc; expressed in transfected cells; host or cells: Drosophila Schneider 2 (S2) cells
# T1 sequence (P00522 whole entry, the tested form may be a part): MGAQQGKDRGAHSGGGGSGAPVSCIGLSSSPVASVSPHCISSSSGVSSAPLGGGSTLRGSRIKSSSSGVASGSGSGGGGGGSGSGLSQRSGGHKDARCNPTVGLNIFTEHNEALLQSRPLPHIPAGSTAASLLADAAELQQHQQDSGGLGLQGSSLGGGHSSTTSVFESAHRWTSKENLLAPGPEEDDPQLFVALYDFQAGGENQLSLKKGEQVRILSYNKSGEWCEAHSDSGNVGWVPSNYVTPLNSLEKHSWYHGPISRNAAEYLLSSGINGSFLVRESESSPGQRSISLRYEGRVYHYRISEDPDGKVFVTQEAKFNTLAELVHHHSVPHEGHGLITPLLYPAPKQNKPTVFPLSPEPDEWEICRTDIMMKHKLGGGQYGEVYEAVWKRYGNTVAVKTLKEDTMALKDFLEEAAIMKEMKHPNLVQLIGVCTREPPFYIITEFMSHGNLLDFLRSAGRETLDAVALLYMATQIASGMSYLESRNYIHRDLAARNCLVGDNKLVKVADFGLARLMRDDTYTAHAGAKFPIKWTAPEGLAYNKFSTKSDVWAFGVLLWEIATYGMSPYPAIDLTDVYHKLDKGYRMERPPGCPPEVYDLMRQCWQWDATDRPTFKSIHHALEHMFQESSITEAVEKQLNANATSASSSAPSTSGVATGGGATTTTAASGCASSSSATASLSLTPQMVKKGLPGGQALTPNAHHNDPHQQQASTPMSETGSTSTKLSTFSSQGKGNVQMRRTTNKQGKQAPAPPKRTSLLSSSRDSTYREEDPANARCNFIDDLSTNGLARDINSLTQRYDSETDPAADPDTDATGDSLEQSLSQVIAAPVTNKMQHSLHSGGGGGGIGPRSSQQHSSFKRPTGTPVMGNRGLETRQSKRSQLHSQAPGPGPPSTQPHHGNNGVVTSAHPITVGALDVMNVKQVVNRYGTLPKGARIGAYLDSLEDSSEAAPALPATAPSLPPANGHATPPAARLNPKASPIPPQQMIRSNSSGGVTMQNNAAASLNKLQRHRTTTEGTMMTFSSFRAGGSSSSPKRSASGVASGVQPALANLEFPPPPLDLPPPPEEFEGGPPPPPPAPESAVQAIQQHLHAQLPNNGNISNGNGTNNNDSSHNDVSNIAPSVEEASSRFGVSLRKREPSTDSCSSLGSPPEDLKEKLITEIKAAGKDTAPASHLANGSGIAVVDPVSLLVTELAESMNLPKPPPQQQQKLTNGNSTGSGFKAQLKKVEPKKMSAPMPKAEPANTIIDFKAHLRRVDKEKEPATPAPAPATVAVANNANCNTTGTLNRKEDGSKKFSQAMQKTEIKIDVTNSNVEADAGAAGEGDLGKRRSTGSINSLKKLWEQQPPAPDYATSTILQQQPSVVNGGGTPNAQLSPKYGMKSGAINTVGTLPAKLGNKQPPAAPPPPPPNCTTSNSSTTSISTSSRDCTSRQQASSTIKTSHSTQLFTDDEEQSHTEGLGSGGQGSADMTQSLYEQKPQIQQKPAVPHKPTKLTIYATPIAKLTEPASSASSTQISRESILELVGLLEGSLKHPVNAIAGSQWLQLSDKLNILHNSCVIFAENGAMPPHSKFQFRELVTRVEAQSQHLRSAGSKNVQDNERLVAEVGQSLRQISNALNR
# Experimental: Abl activity was assessed by western blotting analysis with an anti-phospho-Y412-Abl antibody.
# Drosophila Schneider 2 cells were maintained in Drosophila Schneider's medium (Life Technologies) supplemented with 10% fetal bovine serum (Sigma-Aldrich, St. Louis, Mo.) in a humidified atmosphere at 26° C. Cells grown on tissue culture plates were transfected with Lipofectamine 2000 (Life Technologies) according to manufacturer's recommendation. Cells were harvested two days after transfection, lysed in SDS sample buffer, and subjected to western blot analysis. In some experiments, cells were transfected with indicated DNA constructs together with tubulin-Gal4 (Lee and Luo, 2001) by using Lipofectamine 2000 (Invitrogen) according to manufacturer's protocol.
# Western blot analysis was performed as follows.
# (§1) Sample preparation, imaging, and quantification were then completed as described above.
# During the development of embodiments of the technology provided herein, experiments were performed to assess the effects of Abl kinase inhibitors on Dscam-induced axonal overgrowth. […] Abl activity was assessed by western blotting analysis with an anti-phospho-Y412-Abl antibody.
# [1] = tested on: C4da neurons overexpressing Dscam; test: Axon terminal overgrowth induced by Dscam overexpression in single C4da neurons (MARCM), larvae fed drug; assay type: in vivo, Drosophila; details: larvae reared in food containing 380 μM nilotinib (figure legend: 0.4 mM), 4 days
# From the text: The genetic technique MARCM was used to express the Dscam transgene in single C4da neurons and to label the morphology of the axon terminals.
# The MARCM technique was used to generate and label C4da neurons homozygous for abl^1 or abl^4 mutations and C4da neurons overexpressing Dscam[TM2]:GFP.
# Antibodies used include chicken anti-GFP (Ayes) and rabbit anti-RFP (Rockland). Samples were dehydrated and mounted with DPX mounting media (Electron Microscopy Sciences). Confocal imaging was completed with a Leica SP5 confocal system equipped with a resonant scanner and 63× oil-immersion lens (NA=1.40).
# as §1
# In particular, the genetic mosaic analysis MARCM was used to express the Dscam transgene in single C4da neurons and to label the morphology of the axon terminals. […] Expression of Dscam transgene was achieved by the C4da-specific driver ppk-Gal4 and UAS-Dscam::GFP transgenes. […] Dscam expression levels (GFP intensity) were measured from the C4da neuron cell body.
# [2] = tested on: dFMRP mutant C4da neurons; test: Axon terminal overgrowth in dFMRP mutants (Fragile X Syndrome model), larvae fed drug; assay type: in vivo, Drosophila; details: larvae raised with nilotinib 4 days; vehicle-fed mutants 130%
# From the text: The MARCM technique was used to generate and visualize single axon terminals of mutant C4da neurons. […] FIG. 10c summarizes the data from FIG. 6, FIG. 10A and FIG. 10B relating to quantification of the axon terminal length of the indicated genotype and drug treatment. […] Scale bar is 10 μm. Two-way Student's t-test was used for statistical analysis. *: p<0.05; **: p<0.01; ***: p<0.001; ****; p<0.0001.
# The MARCM technique was used to generate and label C4da neurons homozygous for abl^1 or abl^4 mutations and C4da neurons overexpressing Dscam[TM2]:GFP. MARCM clones were induced as previously described in Ye et al. (2011) Journal of Neuroscience 31: 3309-3319. Confocal images were collected and analyzed as described in Kim et al. (2013) Neuron 78: 827-838. The MARCM technique was used to visualize single neurons homozygous for abl^1, abl^4, or dFMRP^Δ50 and overexpressing Dscam[3.36.25.2]:GFP as previously described (Kim, et al., 2013).
# as §1
# Fragile X Syndrome (FXS) is caused by an absence of Fragile X mental retardation protein (FMRP) (Kremer, et al. (1991) Science 252: 1711-14), and is modeled in Drosophila using loss-of-function mutants for the Drosophila homolog of […], dFMRP (Zhang, et al. (2001) Cell 107:591-603; Dockendorff, et al. (2002) Neuron 34: 973-84).
# Human pharmacokinetics = assay type: in vivo; details: estimated
# P-glycoprotein = P-glycoprotein (Homo sapiens, UniProt P08183); details: cited from earlier work
# Chain of P-glycoprotein (P08183 whole entry): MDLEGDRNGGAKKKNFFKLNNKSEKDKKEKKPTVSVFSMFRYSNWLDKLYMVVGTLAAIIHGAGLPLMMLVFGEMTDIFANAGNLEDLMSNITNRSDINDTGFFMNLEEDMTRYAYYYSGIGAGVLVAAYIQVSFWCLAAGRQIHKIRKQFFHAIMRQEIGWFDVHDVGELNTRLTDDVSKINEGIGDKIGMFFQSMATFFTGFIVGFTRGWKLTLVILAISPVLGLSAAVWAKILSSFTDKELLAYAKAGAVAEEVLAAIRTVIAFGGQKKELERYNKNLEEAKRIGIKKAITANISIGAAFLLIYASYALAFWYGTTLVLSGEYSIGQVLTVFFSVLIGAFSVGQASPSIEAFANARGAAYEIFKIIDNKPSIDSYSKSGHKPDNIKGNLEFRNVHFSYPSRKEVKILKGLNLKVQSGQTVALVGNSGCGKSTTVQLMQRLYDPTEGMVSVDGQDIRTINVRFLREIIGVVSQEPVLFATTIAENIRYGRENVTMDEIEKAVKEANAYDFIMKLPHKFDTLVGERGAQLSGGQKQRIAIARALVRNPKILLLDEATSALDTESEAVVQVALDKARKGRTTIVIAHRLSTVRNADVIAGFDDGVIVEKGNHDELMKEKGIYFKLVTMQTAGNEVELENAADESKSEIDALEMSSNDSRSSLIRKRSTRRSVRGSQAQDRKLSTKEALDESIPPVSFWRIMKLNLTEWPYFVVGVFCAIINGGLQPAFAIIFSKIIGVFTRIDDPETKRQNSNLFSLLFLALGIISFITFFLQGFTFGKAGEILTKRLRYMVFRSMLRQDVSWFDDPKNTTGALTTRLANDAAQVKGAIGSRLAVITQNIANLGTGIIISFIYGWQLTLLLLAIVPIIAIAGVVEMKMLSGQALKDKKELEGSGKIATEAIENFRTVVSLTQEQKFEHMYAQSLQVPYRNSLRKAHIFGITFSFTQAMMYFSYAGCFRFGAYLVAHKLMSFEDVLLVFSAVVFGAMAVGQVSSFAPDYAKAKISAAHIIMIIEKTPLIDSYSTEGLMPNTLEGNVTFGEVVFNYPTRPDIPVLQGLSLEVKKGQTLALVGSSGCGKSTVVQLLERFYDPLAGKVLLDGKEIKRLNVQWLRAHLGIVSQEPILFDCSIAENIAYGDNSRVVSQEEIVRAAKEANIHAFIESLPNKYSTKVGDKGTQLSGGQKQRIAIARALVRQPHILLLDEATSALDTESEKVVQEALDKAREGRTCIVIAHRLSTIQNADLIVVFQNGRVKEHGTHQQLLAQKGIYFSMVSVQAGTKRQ
# [3] = human, oral capsule; cited from earlier work
# OCT1 = target: T2, OCT1 (Homo sapiens, UniProt O15245); details: entry into cell cytoplasm; cited from earlier work
# T2 sequence (O15245 1-554): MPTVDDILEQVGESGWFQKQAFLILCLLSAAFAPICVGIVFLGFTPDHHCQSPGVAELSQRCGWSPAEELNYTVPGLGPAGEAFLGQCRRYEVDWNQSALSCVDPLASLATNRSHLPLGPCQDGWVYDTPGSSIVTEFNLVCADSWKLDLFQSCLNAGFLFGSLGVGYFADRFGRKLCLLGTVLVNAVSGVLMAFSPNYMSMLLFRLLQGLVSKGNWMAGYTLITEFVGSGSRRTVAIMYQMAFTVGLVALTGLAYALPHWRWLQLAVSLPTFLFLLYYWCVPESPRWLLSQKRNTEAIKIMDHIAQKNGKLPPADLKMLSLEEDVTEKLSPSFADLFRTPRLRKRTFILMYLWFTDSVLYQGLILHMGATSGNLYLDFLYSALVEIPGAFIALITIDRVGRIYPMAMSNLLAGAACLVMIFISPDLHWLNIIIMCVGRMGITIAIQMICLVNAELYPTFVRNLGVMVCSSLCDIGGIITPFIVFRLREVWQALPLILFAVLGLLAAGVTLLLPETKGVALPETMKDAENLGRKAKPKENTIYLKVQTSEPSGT
# [4] = pediatric patient studies; cited from earlier work
SMILES,Abl activity (phospho-Y412-Abl) (Drosophila Abl),Dscam-induced axon terminal overgrowth [1],axon terminal length in dFMRP mutants [2],concentration in a human (Human pharmacokinetics),substrate for the efflux transporter P-glycoprotein pump (P-glycoprotein),bioavailability [3],influx dependent on OCT1 (OCT1),tolerance in children [4]
"Cc1cn(-c2cc(NC(=O)c3ccc(C)c(Nc4nccc(-c5cccnc5)n4)c3)cc(C(F)(F)F)c2)cn1 [nilotinib, 4-methyl-N-[3-(4-methyl-1-H-imidazol-1-yl)-5-(trifluoromethyl)phenyl]-3-[(4-pyridin-3-ylpyrimidin-2-yl)amino]benzamide]",completely suppressed,nearly completely suppressed; also recorded: suppresses axon terminal overgrowth,103 % of control,approximately 1.3 μmol/liter,not a substrate,approximately 30%,is not,
Cc1ccc(NC(=O)c2ccc(CN3CCN(C)CC3)cc2)cc1Nc1nccc(-c2cccnc2)n1 [imatinib],,,,,substrate,,,
Cc1nc(Nc2ncc(C(=O)Nc3c(C)cccc3Cl)s2)cc(N2CCN(CCO)CC2)n1 [Dasatinib],,,,,not a substrate,,,good tolerance
